Source: patent publication US20260273074A1, “FERRITIN-TARGETING PROTACS AND METHODS OF INDUCING PYROPTOSIS” (Wisconsin Alumni Research Foundation, priority 2023, published 2026)

Columns and labels:
Type in all cases: cell-based, murine
ferritin (Mus musculus) [1] = system: T1, ferritin (Mus musculus); assay: Western blot of ferritin expression (ferritin degradation) in B16F10 cells; details: B16F10 cells
T1 construct: ferritin expression levels in B16F10 cells were evaluated; endogenous in cells; host or cells: B16F10 (murine melanoma)
Procedure: Western blot analysis: After various treatments, ferritin expression levels in B16F10 cells were evaluated to investigate the DeFer-2-mediated ferritin degradation. Briefly, B16F10 cells were seeded in 6-well culture plates (5×10^4 cells per well) and cultured for 24 h. Then the medium in the corresponding wells except the negative control was replaced with 1 mL of medium containing ferritin degraders, albumin nanoparticles, the epimer formulations, the combination of VHL ligand and oleic acid, or the combination of the degrader and VHL ligand at the indicated concentrations. […] The lysates were centrifuged at 12,000 rpm for 10 min at 4° C., followed by quantification of the total proteins in the supernatant through the bicinchoninic acid assay (BCA) assay. Afterward, the proteins in the supernatant were mixed with the loading buffer and heated at 95° C. for 15 min. Equal amounts of proteins from different samples were loaded into 15% SDS-polyacrylamide gel (20 μg protein per lane) to separate target proteins. After separation, proteins were transferred to polyvinylidene fluoride (PVDF) membranes before the membranes were blocked with 5% nonfat milk in PBST. Then proteins were incubated with primary antibodies overnight at 4° C., followed by the incubation with the goat-anti-rabbit IgG H&L (HRP) secondary antibodies at room temperature for 2 h. Finally, the bands were detected with electrochemiluminescence (ECL) western blot substrate for imaging, and ImageJ software was used for quantification.

ferritin (Mus musculus) [2] = system: T1, ferritin (Mus musculus); assay: Quantitative proteomics analysis of whole-cell B16F10 proteins; details: B16F10 cells, 0.5 μM, 12 h
Procedure: Quantitative proteomics analysis: Cell culture and proteomic sample preparation: B16F10 cells were seeded in T75 cell culture flasks (2×10^6 cells per well) and cultured for 24 h. […] After incubation for 12 h, cells were washed with cold PBS twice and digested with 2 mL trypsin. The cell pellets were collected in 1.5 mL Eppendorf tubes through centrifugation at 1200 rpm for 3 minutes at 4° C. As for the proteomic sample preparation, cell pellets placed on the ice were completely resuspended with a cold 100 mM ammonium bicarbonate (ABC) solution. […] Based on the quantification results, an appropriate volume of lysate supernatant containing 20 μg proteins was collected and incubated with 10 mM DL-dithiothreitol (DTT) at 37° C. for 30 min. […]
LC-MS/MS analysis: The LC separations were performed with a Waters™ Nano-Acquity UPLC System. […] Eluted peptides were analyzed on Thermo Orbitrap Q-Exactive™ MS operated in positive ion mode with nano-ESI high-resolution Q-Exactive™ analysis. […]
Data analysis: All the resulting raw files were analyzed using Proteome Discoverer software v.2.4 (Thermo Fisher Scientific), SEQUEST HT using Uniprot Mus musculus reference proteome with a decoy database added to establish control variability and false discovery rates. […]

B16F10 cells = assay: Morphology observation (pyroptosis); details: 5 μM, 24 h
Procedure: Morphology observation: 5×10^4 B16F10 cells were seeded in confocal dishes and cultured for 24 h at 37° C. […] After incubation for 24 h, the cells were washed with PBS and subjected to a Nikon Eclipse Ti Intensilight fluorescence microscope in a phase contrast mode for observation.

cleaved caspase 3 = assay: Western blot of cleaved caspase 3 in B16F10 cells; details: 8 h
Procedure: (§1) As for the determination of cleaved-GSDME and cleaved-caspase-3, B16F10 cells were seeded in 6-well culture plates (2×10^5 cells per well) and cultured for 24 h. Then the medium in the corresponding wells except the negative control was replaced with 1 mL of medium containing ferritin degraders, albumin nanoparticles, or the degrader with inhibitors at the indicated concentrations. Incubation for another 6 or 8 h was used to test the cleaved-caspase-3, while treatment for another 16 or 20 h was used to test cleaved-GSDME. The following procedures were the same as mentioned above.

GSDME-N = assay: Western blot of cleaved N-terminal GSDME (GSDME-N) in B16F10 cells; details: 20 h
Procedure: as §1

Structure (SMILES): CCCCCCCCC=CCCCCCCCC(=O)NCCCC(=O)NC(C(=O)N1CC(O)CC1C(=O)NCc1ccc(-c2scnc2C)cc1)C(C)(C)C (stereo not drawn) [DeFer-2]
- ferritin expression over time (ferritin (Mus musculus) [1]; 0.5 μM, 0-24 h): reduced the ferritin expression in a time-dependent manner
- ferritin degradation (ferritin (Mus musculus) [1]; 0.5 μM, 12 h (FIG. 5A)): successfully induced the ferritin degradation
- degradation capacity compared among the three PROTACs (ferritin (Mus musculus) [1]; 0.5 μM, different time points): most potent degradation capacity with a longer duration of action
- maximum ferritin degraded (ferritin (Mus musculus) [1]; 5 μM, 12 h): 58%
- reduction of ferritin levels compared to DeFer-2epi (ferritin (Mus musculus) [2]; proteomics): 44.1%
- selectivity of ferritin degradation (global protein abundance) (ferritin (Mus musculus) [2]; versus DeFer-2epi): strong on-target effect
- morphology of dying cells (B16F10 cells): obvious swelling and characteristic membrane blebbing
- level of cleaved caspase 3 (cleaved caspase 3): increased the level of cleaved caspase 3 in a dose-dependent manner
- generation of GSDME-N (GSDME-N): enhance the generation of GSDME-N
